The values that follow come from patent publication US9676780B2, “Piperazine-substituted [1,2,4]triazolo[1,5-C]quinazolin-5-amine compounds with A2A antagonist properties” (MERCK SHARP & DOHME CORP., priority 2012, dated 2017).

T1 sequence (P29274 whole entry): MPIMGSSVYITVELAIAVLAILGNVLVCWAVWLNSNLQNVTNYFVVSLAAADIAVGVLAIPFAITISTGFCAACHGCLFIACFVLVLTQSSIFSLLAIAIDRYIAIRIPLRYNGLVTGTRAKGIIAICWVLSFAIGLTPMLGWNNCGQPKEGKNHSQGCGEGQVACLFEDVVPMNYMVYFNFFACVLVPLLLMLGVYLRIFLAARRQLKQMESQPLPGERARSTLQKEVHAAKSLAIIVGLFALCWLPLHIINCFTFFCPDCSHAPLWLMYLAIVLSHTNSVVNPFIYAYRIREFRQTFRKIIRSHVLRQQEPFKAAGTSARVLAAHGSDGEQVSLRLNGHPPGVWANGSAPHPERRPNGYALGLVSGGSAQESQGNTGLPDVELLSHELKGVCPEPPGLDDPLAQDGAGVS

One test concerns the target T1, human A2a receptor (Homo sapiens, UniProt P29274).
T1 construct: purchased Perkin-Elmer RBHA2AM400UA; host or cells: HEK293
As to the kind of experiment: A2a receptor competition binding assay (Scintillation Proximity, tritiated radioligand). Conditions: A2a EC50, membranes from HEK293 cells expressing the human A2a receptor; 0.5 nM tritiated ligand; SPA beads; one hour at room temperature. As to the method: Binding affinities of compounds of the invention for the human A2a receptor were determined in a competition binding assay using Scintillation Proximity technology. […] The beads were then allowed to settle to the bottom of the wells for 1 hr, after which the membrane-associated radioactivity was determined by scintillation counting in a TopCount microplate reader. Ki values were determined using the Cheng-Prusoff equation.
• HEK293 cells expressing the human, rat, dog or monkey adenosine 2a receptor (Purchased from Perkin-Elmer # RBHA2AM400UA). • The Tritiated compound was prepared in-house by MRL Radiochemistry according to published methods. • Wheatgerm agglutinin-coated yttrium silicate SPA beads (GE Healthcare #RPNQ0023). […] This is a 2.5× solution. The final concentration in the assay is 0.5 nM. Calculate the concentration by counting two 5 ul aliquots. Membrane Preparation • Use 0.25 ug of membrane/well. Dilute membranes to 9.7 ug/ml in assay buffer. Treat with 20 ug/ml adenosine deaminase (ADA) for 15 minutes at room temperature to degrade endogenous adenosine. Membrane-Bead Mixture • Use 100 ug/well wheatgerm agglutinin-coated yttrium silicate SPA beads. • Mix ADA-treated membranes and SPA beads together for 30 min prior to assay. […] Incubate for one hour at room temperature with agitation. • Include total binding (assay buffer+1% DMSO) and non-specific binding (CGS15943, 1 uM) wells. Counting • Allow the beads to settle for one hour. • Count in TopCount. Calculations • A curve fitting program (i.e., Prism, Activity Base, Chemcart) is used to determine the EC50.
The Ki value is calculated using the Cheng-Prusoff equation. Ki=EC50/(1+(radioligand concentration/Kd))
In general terms: In a scintillation proximity assay essentially only radioactivity close to the scintillant gives light.
As to `COc1cccc2c1nc(N)n1nc(CN3C4CCC3C3CCC4N3)nc21` [Ex-208], a half-maximal effect (EC50) was put at 143 nM.
`COc1cccc2c1nc(N)n1nc(CN3C4CCC3C3CCC4N3C(=O)c3ccc(C(F)(F)F)cc3)nc21` [Ex-203] registered an EC50 of 8.5 nM.

The test is the same for the next values; noted with them: membranes from HEK293 cells expressing the human A2a receptor; 0.5 nM tritiated ligand; SPA beads; one hour at room temperature; read-out: A2a EC50.
As for `COc1cccc2c1nc(N)n1nc(CCN3CCN(c4ccc(F)cn4)C[C@H]3C)nc21` [Ex-169], the EC50 came out at 2.6 nM.
For `COc1cccc2c1nc(N)n1nc(CN3CCN(c4nnc(C)[nH]4)CC3C)nc21` (stereo not drawn) [Ex-84], the EC50 is 57.2 nM.
In the case of `COc1cccc2c1nc(N)n1nc(CN3CCN(S(=O)(=O)C4CC4)CC34CC4)nc21` [Ex-194], the EC50 was found to be 24.8 nM.
Same read-out and setting: in the case of `COc1cc(F)ccc1N1CCN(Cc2nc3c4cccc(OC)c4nc(N)n3n2)C(C)C1` (stereo not drawn) [Ex-96] it was 3.41 nM; in that of `COc1cccc2c1nc(N)n1nc(CN3CCN(c4ccc(Cl)cc4)C[C@H]3C)nc21` [Ex-35], 3.7 nM; in that of `COc1cccc2c1nc(N)n1nc(CN3CCN(c4ccc5ncccc5c4)CC3C)nc21` (stereo not drawn) [Ex-63], 1.44 nM.
The same measure, in the same setting: in the case of `COc1cccc2c1nc(N)n1nc(CN3CCN(Cc4c(F)cccc4F)CC3C)nc21` (stereo not drawn) [Ex-24] it was 14.4 nM; in that of `COc1cccc2c1nc(N)n1nc(CN3CCN(c4cccc5nn(C)cc45)CC3C)nc21` (stereo not drawn) [Ex-132], 2.04 nM; in that of `COc1cccc2c1nc(N)n1nc(CN3CC(C)N(c4ccccc4)CC3C)nc21` (stereo not drawn) [Ex-8], 21.2 nM.
With `CCn1ccnc1CN1CCN(Cc2nc3c4cccc(OC)c4nc(N)n3n2)C(C)C1` (stereo not drawn) [Ex-12], the EC50 came out at 88 nM.
On the same count and under the same terms, then `COc1cccc2c1nc(N)n1nc(CN3CCN(c4ccc(F)cc4)CC34CC4)nc21` [Ex-191], with 8.2 nM; and `COc1cccc2c1nc(N)n1nc(CN3CCN(c4ccc(N5CCOCC5)cc4)CC3C)nc21` (stereo not drawn) [Ex-119], with 1.97 nM; and `C[C@@H]1CN(c2ccc(F)cc2)CCN1Cc1nc2c3cccc(C#N)c3nc(N)n2n1` [Ex-156], with 740 nM.
`COc1cccc2c1nc(N)n1nc(CN3CCN(C(C)c4ccc(F)cc4F)CC3C)nc21` (stereo not drawn) [Ex-92]: the EC50 was found to be 5.2 nM.
In the case of `COc1cccc2c1nc(N)n1nc(CN3CCN(c4ccc5nc(C6CC6)oc5c4)CC3C)nc21` (stereo not drawn) [Ex-110], the EC50 stood at 1.1 nM.
Still for that read-out and setting: then `COc1cccc2c1nc(N)n1nc(CN3CCN(c4nccs4)CC3C)nc21` (stereo not drawn) [Ex-51], with 73.8 nM.
Turning to `COc1cccc2c1nc(N)n1nc(CCN3CCN(c4ccccc4)CC3)nc21` [Ex-166], the EC50 was found to be 13.5 nM.
As to `COc1ccc(N2CCN(Cc3nc4c5cccc(OC)c5nc(N)n4n3)CC2(C)C)cc1` [Ex-180], the EC50 worked out at 1.1 nM.
Turning to `C[C@@H]1CN(c2ccc(F)cc2)CCN1Cc1nc2c3cccc(Br)c3nc(N)n2n1` [Ex-157], the EC50 is 14.4 nM.
On to `COc1cccc2c1nc(N)n1nc(CN3CCN(c4ccc(C#N)cc4)CC3C)nc21` (stereo not drawn) [Ex-61], for which the EC50 stood at 11.4 nM.
`COc1cccc2c1nc(N)n1nc(CCN3CCN(c4ccccn4)CC3)nc21` [Ex-165]: the EC50 worked out at 3.3 nM.
Still for that read-out and setting: then `COc1cccc2c1nc(N)n1nc(CN3CCN(c4noc(C)n4)CC3C)nc21` (stereo not drawn) [Ex-52], with 48.5 nM.
`COc1cccc2c1nc(N)n1nc(CN3CCN(Cc4cc(F)cc(F)c4)CC3C)nc21` (stereo not drawn) [Ex-26]: the EC50 is 21.8 nM.
For the compound `COc1cncc(N2CCN(Cc3nc4c5cccc(OC)c5nc(N)n4n3)C(C)C2)c1` (stereo not drawn) [Ex-146], the EC50 was determined as 6.35 nM.
Still for that read-out and setting: then `COCCOc1ccc(N2CCN(Cc3nc4c5ccccc5nc(N)n4n3)CC2)cc1` [Ex-161], with 525 nM; and `COc1cc(F)cc2c1nc(N)n1nc(CN3CCN(Cc4ccc(F)cc4)C(=O)C3)nc21` [Ex-211], with 9.9 nM.
With `C[C@@H]1CN(c2ccc(F)cc2)CCN1Cc1nc2c3cccc(C(F)(F)F)c3nc(N)n2n1` [Ex-155], the EC50 came to 136 nM.
`COc1cccc2c1nc(N)n1nc(CN3CCN(c4c(C)nn(C)c4C)CC3C)nc21` (stereo not drawn) [Ex-129]: the EC50 turned out to be 11.6 nM.
Take `COc1cc(OC)cc(N2CCN(Cc3nc4c5cccc(OC)c5nc(N)n4n3)C(C)C2)c1` (stereo not drawn) [Ex-133]: the EC50 worked out at 1.68 nM.
The same measure, in the same setting: in the case of `COc1cccc2c1nc(N)n1nc(CN3CCN(c4nccnc4C)CC3C)nc21` (stereo not drawn) [Ex-135] it was 10.7 nM.
`COc1cccc2c1nc(N)n1nc(CN3CCN(c4ncc(C(=O)O)s4)CC3C)nc21` (stereo not drawn) [Ex-81]: the EC50 turned out to be 68.2 nM.
As for `COc1cccc2c1nc(N)n1nc(CN3CCN(c4ccc(C(F)(F)F)cn4)CC3(C)C)nc21` [Ex-199], the EC50 was 10.8 nM.
With `COc1cccc2c1nc(N)n1nc(CN3CCN(c4ccc5ccccc5c4)CC3C)nc21` (stereo not drawn) [Ex-72], the EC50 was found to be 6.7 nM.
As to `COc1cccc2c1nc(N)n1nc(CN3CCN(c4ccc(Cl)cc4)C[C@@H]3C)nc21` [Ex-34], the EC50 turned out to be 18.5 nM.
Take `COc1ccccc1N1CCN(Cc2nc3c4cccc(OC)c4nc(N)n3n2)CC1(C)C` [Ex-187]: the EC50 came to 5.8 nM.
On to `COc1cc(N2CCN(Cc3nc4c5cccc(OC)c5nc(N)n4n3)C(C)C2)ccc1F` (stereo not drawn) [Ex-115], for which the EC50 was determined as 1.39 nM.
For `COc1cccc2c1nc(N)n1nc(C(=O)N3CCN(CC(F)(F)F)CC3C)nc21` (stereo not drawn) [Ex-147], the EC50 turned out to be 6.6 nM.
Take `COc1cccc2c1nc(N)n1nc(CN3CCN(c4ccncc4F)CC3C)nc21` (stereo not drawn) [Ex-104]: the EC50 worked out at 23.1 nM.
For the compound `COc1cccc2c1nc(N)n1nc(CN3CCN(c4ccc(Cl)cn4)CC3C)nc21` (stereo not drawn) [Ex-134], the EC50 came out at 4.57 nM.
In the case of `COc1cccc2c1nc(N)n1nc(CN3CCN(c4ncccc4C(F)(F)F)CC3C)nc21` (stereo not drawn) [Ex-148], the EC50 came to 18 nM.
Same read-out and setting: then `COCc1nc(N2CCN(Cc3nc4c5cccc(OC)c5nc(N)n4n3)C(C)C2)no1` (stereo not drawn) [Ex-79], with 21.1 nM; and `COc1cccc2c1nc(N)n1nc(CN3CCN(c4cnn(CC(C)(C)C)c4)CC3C)nc21` (stereo not drawn) [Ex-140], with 4.93 nM.
Take `COc1cccc2c1nc(N)n1nc(CN3CCN(c4cccc(C)n4)CC3C)nc21` (stereo not drawn) [Ex-99]: the EC50 was found to be 46.3 nM.
Regarding `COc1cc(F)cc2c1nc(N)n1nc(CN3CC4CCC(C3)N4Cc3ccccc3)nc21` [Ex-207], the EC50 was 145 nM.
As for `COc1ccc(N2CCN(Cc3nc4c5cccc(OC)c5nc(N)n4n3)C(C)C2)cc1C(F)(F)F` (stereo not drawn) [Ex-118], the EC50 amounted to 1.25 nM.
As to `COc1cccc2c1nc(N)n1nc(CN3CCN(c4ccc(OCC(F)F)cc4)CC3C)nc21` (stereo not drawn) [Ex-151], the EC50 amounted to 2.22 nM.
The same measure, in the same setting: then `COc1cccc2c1nc(N)n1nc(CN3CCN(Cc4ccc(F)cc4F)CC3C)nc21` (stereo not drawn) [Ex-21], with 20.3 nM; and `COc1cccc2c1nc(N)n1nc(CN3CCN(c4ccccc4C#N)CC3C)nc21` (stereo not drawn) [Ex-59], with 30.9 nM.
As for `COc1cccc2c1nc(N)n1nc(CN3CCN(c4cccc(C)c4)CC3C)nc21` (stereo not drawn) [Ex-65], the EC50 worked out at 7 nM.
On the same count and under the same terms, in the case of `COc1cccc2c1nc(N)n1nc(CN3CCN(c4ccc(C)cc4)CC3C)nc21` (stereo not drawn) [Ex-66] it was 3 nM; in that of `COc1cccc2c1nc(N)n1nc(CC(=O)N3CCN(c4ccccn4)CC3)nc21` [Ex-153], 7.3 nM.
Regarding `COCCOc1ccc(N2CCN(Cc3nc4c5cccc(OC)c5nc(N)n4n3)C(C)C2)cc1` (stereo not drawn) [Ex-94], the EC50 came out at 1.85 nM.
As to `COc1cccc2c1nc(N)n1nc(CN3CCN(Cc4ccc(N5CCCC5)cc4)CC3C)nc21` (stereo not drawn) [Ex-31], the EC50 was determined as 49.1 nM.
Turning to `COc1cccc2c1nc(N)n1nc(CN3CCN(c4ccnc(C(F)(F)F)c4)CC3C)nc21` (stereo not drawn) [Ex-97], the EC50 stood at 18.2 nM.
`COc1cccc2c1nc(N)n1nc(CN3CCN(Cc4nccs4)CC3C)nc21` (stereo not drawn) [Ex-17]: the 50% effective concentration (EC50) was 26.7 nM.

For orientation: EC50 means the concentration giving half of the maximal effect.
